The target of data set [1] is T1, full-length B-Catenin (Uniprot ID P35222) (Homo sapiens, UniProt P35222).
T1 construct: 65 nM full-length B-Catenin (Uniprot ID P35222)
T1 sequence (P35222 1-781): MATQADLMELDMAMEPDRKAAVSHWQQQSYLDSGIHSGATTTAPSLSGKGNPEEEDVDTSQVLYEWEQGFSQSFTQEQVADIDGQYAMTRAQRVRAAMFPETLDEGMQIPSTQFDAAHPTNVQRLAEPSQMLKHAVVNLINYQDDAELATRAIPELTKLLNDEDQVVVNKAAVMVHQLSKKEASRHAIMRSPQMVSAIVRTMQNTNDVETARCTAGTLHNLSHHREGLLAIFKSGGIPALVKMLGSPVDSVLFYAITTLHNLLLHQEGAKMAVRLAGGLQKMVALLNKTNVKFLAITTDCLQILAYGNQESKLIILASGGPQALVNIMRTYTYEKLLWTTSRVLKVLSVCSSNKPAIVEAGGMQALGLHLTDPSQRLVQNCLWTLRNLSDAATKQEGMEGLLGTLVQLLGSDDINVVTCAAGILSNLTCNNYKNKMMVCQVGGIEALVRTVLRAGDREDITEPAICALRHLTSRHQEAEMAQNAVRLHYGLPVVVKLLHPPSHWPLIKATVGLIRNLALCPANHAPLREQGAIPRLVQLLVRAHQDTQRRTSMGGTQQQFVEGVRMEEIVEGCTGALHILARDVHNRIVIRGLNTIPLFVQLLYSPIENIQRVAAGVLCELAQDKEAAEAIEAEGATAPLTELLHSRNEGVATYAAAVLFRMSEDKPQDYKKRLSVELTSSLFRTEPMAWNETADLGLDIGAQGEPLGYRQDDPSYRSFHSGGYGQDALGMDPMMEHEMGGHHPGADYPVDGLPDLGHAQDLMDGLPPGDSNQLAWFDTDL
Kind of data set: Alphascreen binding assay (beta-catenin / biotin-TCF4 10-53). The method, boiled down: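 Final concentrations: 65 nM full-length human β-catenin plus 10 nM biotin-TCF4(10-53) peptide, test peptide 3-fold from 10 uM to 5 nM, preincubated 15 min at 20 °C in Tris pH 8.0/250 mM NaCl buffer. Nickel-chelate AlphaScreen donor/acceptor beads then added for 60 min in the dark; duplicate reads fitted to 1:1 binding model with Hill slope.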
A general note: Alpha assays give light when donor and acceptor beads are brought close together.

Data set [2] deals with T2, full-length beta-Catenin (Uniprot ID P35222) (Homo sapiens, UniProt P35222).
T2 construct: 10 nM full-length beta-Catenin (Uniprot ID P35222)
T2 sequence (P35222 1-781): T1 sequence (P35222 1-781)
Put plainly: Fluorescence polarization IC50 (beta-catenin / 5FAM-TCF4 10-53 competition). It counts as binding. On the technique in general: In fluorescence polarisation assays a small probe gives low polarisation when free and higher when bound to something large.

Data set [3] can be described thus: CHI Log D procedure. The class given is physicochemical. As to conditions: for CHI Log D: pH 7.4; for chromatographic logD: pH 7.4, CHI Log D.
Setting [4] is: Table E2-1, read-out: beta-Catenin FP IC50.
The mark [5] stands for this setting: fluorescence polarization, beta-catenin, read-out: FP EC50.

Like-named read-outs stand apart in the source and are kept apart here.

We go through 13 molecules from patent US20240116985A1, “STAPLED PEPTIDES AND METHODS THEREOF” (priority 2020, published 2024).

A word on the EC50: it is the midpoint of the concentration-response curve. The low end stands for an effect from little substance, the high end for a need for much substance. As usually defined, the chromatographic logD is lipophilicity estimated from chromatographic retention. A higher chromatographic logD goes with higher lipophilicity.

Regarding `CC[C@H](C)[C@H](NC(=O)[C@H](CC(=O)O)NC(=O)[C@H](C)NC(C)=O)C(=O)N[C@]1(C)CCN(C)C(=O)OCC=CCCCCC[C@@](C)(C(=O)N[C@@H](Cc2ccccc2)C(=O)N[C@@H](Cc2c[nH]c3ccccc23)C(=O)N[C@@H](Cc2c[nH]cn2)C(N)=O)NC(=O)[C@H](CCC(N)=O)NC(=O)[C@H](Cc2ccccc2)NC(=O)[C@H](C)NC(=O)[C@H](C)NC(=O)[C@H](CC(=O)O)NC(=O)[C@H](CC(=O)O)NC1=O` [I-64, Ac-Ala-Asp-Ile-RdN-Asp-Asp-Ala-Ala-Phe-Gln-S7-Phe-Trp-His-NH2], the 50% effective concentration (EC50) in data set [1] turned out to be 650 nM. The IC50 in data set [2] (setting [4]) and in data set [2] (setting [5]) was 4250 nM throughout. Besides, the “CHI Log D” value in data set [3] is 1.222.
In data set [1], `CC[C@H](C)[C@H](NC(=O)[C@H](CC(=O)O)NC(=O)[C@H](C)NC(C)=O)C(=O)N[C@]1(C)CCN(C)C(=O)OCC=CCCCCC[C@@](C)(C(=O)N[C@@H](Cc2ccccc2)C(=O)N[C@@H](Cc2c[nH]c3ccccc23)C(=O)N[C@@H](Cc2c[nH]cn2)C(N)=O)NC(=O)[C@H](CCC(N)=O)NC(=O)[C@H](Cc2ccccc2)NC(=O)[C@H](C)NC(=O)[C@H](C)NC(=O)[C@H](CCC(=O)O)NC(=O)[C@H](CC(=O)O)NC1=O` [I-66, Ac-Ala-Asp-Ile-RdN-Asp-Glu-Ala-Ala-Phe-Gln-S7-Phe-Trp-His-NH2] came in with a concentration giving a half-maximal response (EC50) of 175 nM. The IC50 in data set [2] (setting [4]) and in data set [2] (setting [5]) was 1090 nM in each case. In data set [3], the “CHI Log D” value amounted to 1.259.
Regarding `CC(=O)N1CCC[C@]12CC=CCCCC1(CCCC=CCCCCCC[C@@](C)(C(=O)N[C@@H](Cc3ccccc3)C(=O)N[C@@H](Cc3c[nH]c4ccccc34)C(N)=O)NC(=O)[C@H](C(C)C)NC(=O)[C@H](Cc3ccccc3)NC(=O)[C@H](C)NC(=O)[C@H](C)NC(=O)[C@H](CC(=O)O)NC(=O)[C@H](CC(=O)O)NC1=O)NC(=O)[C@H](C)NC(=O)[C@H](CC(=O)O)NC2=O` (stereo partly drawn) [I-289, Ac-PL3-Asp-Ala-B5-Asp-Asp-Ala-Ala-Phe-Val-S8-Phe-Trp-NH2], in data set [1], the concentration for a half-maximal effect (EC50) amounted to 626 nM. The “CHI Log D” value in data set [3] is 2.242.
Take `CC(=O)N1CCC[C@]12CC=CCCCC1(CCCC=CCCCCCC[C@@](C)(C(=O)N[C@@H](Cc3ccccc3)C(=O)N[C@@H](Cc3csc4ccccc34)C(=O)N[C@@H](C)C(N)=O)NC(=O)[C@H](CCC(N)=O)NC(=O)[C@H](Cc3ccccc3)NC(=O)[C@H](C)NC(=O)[C@H](C)NC(=O)[C@H](Cc3ccc4ccccc4c3)NC(=O)[C@H](CC(=O)O)NC1=O)NC(=O)[C@H](C)NC(=O)[C@H](CC(=O)O)NC2=O` (stereo partly drawn) [I-296, Ac-PL3-Asp-Ala-B5-Asp-2NapA-Ala-Ala-Phe-Gln-S8-Phe-BztA-Ala-NH2]: it took 1910 nM to reach a half-maximal effect in data set [1] (EC50). For the same molecule, the chromatographic logD in data set [3] was 2.94.
Regarding `CC(=O)N1CCC[C@]12CC=CCCCC1(CCCC=CCCCCCC[C@@](C)(C(=O)N[C@@H](Cc3ccccc3)C(=O)N[C@@H](Cc3csc4ccccc34)C(=O)N[C@@H](CCC(N)=O)C(N)=O)NC(=O)[C@H](C(C)C)NC(=O)[C@H](Cc3ccccc3)NC(=O)[C@H](C)NC(=O)[C@H](C)NC(=O)[C@H](Cc3ccc4ccccc4c3)NC(=O)[C@H](CC(=O)O)NC1=O)NC(=O)[C@H](C)NC(=O)[C@H](CC(=O)O)NC2=O` (stereo partly drawn) [I-297, Ac-PL3-Asp-Ala-B5-Asp-2NapA-Ala-Ala-Phe-Val-S8-Phe-BztA-Gln-NH2], in data set [1], the midpoint of the response, the EC50, lay at 5810 nM. This molecule also showed a chromatographic logD in data set [3] of 3.29.
`CC(=O)N1CCC[C@]12CC=CCCCC1(CCCC=CCCCCCC[C@@](C)(C(=O)N[C@@H](Cc3ccccc3)C(=O)N[C@@H](Cc3csc4ccccc34)C(=O)N[C@@H](CCC(N)=O)C(N)=O)NC(=O)[C@H](CO)NC(=O)[C@H](Cc3ccccc3)NC(=O)[C@H](C)NC(=O)[C@H](C)NC(=O)[C@H](Cc3ccc4ccccc4c3)NC(=O)[C@H](CC(=O)O)NC1=O)NC(=O)[C@H](C)NC(=O)[C@H](CC(=O)O)NC2=O` (stereo partly drawn) [I-298, Ac-PL3-Asp-Ala-B5-Asp-2NapA-Ala-Ala-Phe-Ser-S8-Phe-BztA-Gln-NH2] yielded a 50% effective concentration (EC50) in data set [1] of 3860 nM. In data set [3], this molecule had a chromatographic logD of 2.78.
For the molecule `CC(=O)N1CCC[C@]12CC=CCCCC1(CCCC=CCCCCCC[C@@](C)(C(=O)N[C@@H](Cc3cccc(Cl)c3)C(=O)N[C@@H](Cc3c[nH]c4ccccc34)C(=O)N[C@@H](CCC(N)=O)C(N)=O)NC(=O)[C@H](C(C)C)NC(=O)[C@H](Cc3ccccc3)NC(=O)[C@H](C)NC(=O)[C@H](C)NC(=O)[C@H](CC(=O)O)NC(=O)[C@H](CC(=O)O)NC1=O)NC(=O)[C@H](C)NC(=O)[C@H](CC(=O)O)NC2=O` (stereo partly drawn) [I-310, Ac-PL3-Asp-Ala-B5-Asp-Asp-Ala-Ala-Phe-Val-S8-3C1F-Trp-Gln-NH2], the 50% effective concentration (EC50) in data set [1] was determined as 3240 nM. For the same molecule, the “CHI Log D” value in data set [3] is listed as 2.188.
For `CC(=O)N1CCC[C@]12CC=CCCCC1(CCCC=CCCCCCC[C@@](C)(C(=O)N[C@@H](Cc3cccc(Cl)c3)C(=O)N[C@@H](Cc3c[nH]c4ccccc34)C(=O)N[C@@H](CCC(N)=O)C(N)=O)NC(=O)[C@H](C(C)C)NC(=O)[C@H](Cc3ccccc3)NC(=O)[C@H](C)NC(=O)[C@H](C)NC(=O)[C@H](CC(=O)O)NC(=O)[C@H](CC(=O)O)NC1=O)NC(=O)[C@H](C)NC(=O)[C@H](CC(=O)O)NC2=O` (stereo partly drawn) [I-311, Ac-PL3-Asp-Ala-B5-Asp-Asp-Ala-Ala-Phe-Val-S8-3C1F-Trp-Gln-NH2] the same measures were 1240 nM and 2.226.
As to `CC(=O)N1CCC[C@]12CC=CCCCC1(CCCC=CCCCCCC[C@@](C)(C(=O)N[C@@H](Cc3ccc(Cl)cc3)C(=O)N[C@@H](Cc3c[nH]c4ccccc34)C(=O)N[C@@H](CCC(N)=O)C(N)=O)NC(=O)[C@H](C(C)C)NC(=O)[C@H](Cc3ccccc3)NC(=O)[C@H](C)NC(=O)[C@H](C)NC(=O)[C@H](CC(=O)O)NC(=O)[C@H](CC(=O)O)NC1=O)NC(=O)[C@H](C)NC(=O)[C@H](CC(=O)O)NC2=O` (stereo partly drawn) [I-313, Ac-PL3-Asp-Ala-B5-Asp-Asp-Ala-Ala-Phe-Val-S8-4C1F-Trp-Gln-NH2], in data set [1], the concentration giving a half-maximal response (EC50) turned out to be 3600 nM. Also, the “CHI Log D” value in data set [3] is 2.159.
Molecule `CC(=O)N1CCC[C@]12CC=CCCCC1(CCCC=CCCCCCC[C@@](C)(C(=O)N[C@@H](Cc3ccccc3)C(=O)N[C@@H](Cc3c[nH]c4ccccc34)C(=O)N[C@@H](CCC(N)=O)C(N)=O)NC(=O)[C@H](C(C)C)NC(=O)[C@H](Cc3ccccc3)NC(=O)[C@H](C)NC(=O)[C@H](C)NC(=O)[C@H](CCC(=O)O)NC(=O)[C@H](CC(=O)O)NC1=O)NC(=O)[C@H](C)NC(=O)[C@H](Cc1c[nH]cn1)NC2=O` (stereo partly drawn) [I-315, Ac-PL3-His-Ala-B5-Asp-Glu-Ala-Ala-Phe-Val-S8-Phe-Trp-Gln-NH2] displayed a half-maximal effective concentration (EC50) in data set [1] of 9900 nM. Besides, the “CHI Log D” value in data set [3] was found to be 2.359.
Regarding `CC(=O)N1CCC[C@]12CC=CCCCC1(CCCC=CCCCCCC[C@@](C)(C(=O)N[C@@H](Cc3ccccc3)C(=O)N[C@@H](Cc3c[nH]c4ccccc34)C(=O)N[C@@H](CCC(N)=O)C(N)=O)NC(=O)[C@H](C(C)C)NC(=O)[C@H](Cc3c[nH]cn3)NC(=O)[C@H](C)NC(=O)[C@H](C)NC(=O)[C@H](CC(=O)O)NC(=O)[C@H](CC(=O)O)NC1=O)NC(=O)[C@H](C)NC(=O)[C@H](CC(=O)O)NC2=O` (stereo partly drawn) [I-321, Ac-PL3-Asp-Ala-B5-Asp-Asp-Ala-Ala-His-Val-S8-Phe-Trp-Gln-NH2], the EC50 in data set [1] was determined as 2240 nM. Also, the “CHI Log D” value in data set [3] worked out at 2.073.
Turning to `CC(=O)N1CCC[C@]12CC=CCCCC1(CCCC=CCCCCCC[C@@](C)(C(=O)N[C@@H](Cc3ccccc3)C(=O)N[C@@H](Cc3c[nH]c4ccccc34)C(=O)N[C@@H](CCC(N)=O)C(N)=O)NC(=O)[C@H](C(C)C)NC(=O)[C@H](Cc3ccc(N)cc3)NC(=O)[C@H](C)NC(=O)[C@H](C)NC(=O)[C@H](CC(=O)O)NC(=O)[C@H](CC(=O)O)NC1=O)NC(=O)[C@H](C)NC(=O)[C@H](CC(=O)O)NC2=O` (stereo partly drawn) [I-322, Ac-PL3-Asp-Ala-B5-Asp-Asp-Ala-Ala-4AmPhe-Val-S8-Phe-Trp-Gln-NH2], the half-maximal effective concentration (EC50) in data set [1] was 355 nM. Also, in data set [3], the “CHI Log D” value was found to be 1.933.
In data set [1], `CC(=O)N1CCC[C@]12CC=CCCCC1(CCCC=CCCCCCC[C@@](C)(C(=O)N[C@@H](Cc3ccccc3)C(=O)N[C@@H](Cc3c[nH]c4ccccc34)C(=O)N[C@@H](CCC(N)=O)C(N)=O)NC(=O)[C@H](C(C)C)NC(=O)[C@H](Cc3ccccc3)NC(=O)[C@H](C)NC(=O)[C@H](C)NC(=O)[C@H](Cc3ccc(N)cc3)NC(=O)[C@H](CC(=O)O)NC1=O)NC(=O)[C@H](C)NC(=O)[C@H](CC(=O)O)NC2=O` (stereo partly drawn) [I-324, Ac-PL3-Asp-Ala-B5-Asp-4AmPhe-Ala-Ala-Phe-Val-S8-Phe-Trp-Gln-NH2] showed a concentration giving a half-maximal response (EC50) of 1750 nM. In addition, in data set [3], the chromatographic logD was determined as 2.6.
